The text below walks through data of US5945436A, “Pyridylmethyl nitriles, amides and thioamides useful as fungicides” (Uniroyal Chemical Company, Inc., priority 1997, dated 1999).

One assay deals with Botrytis cinerea. In words: Fungal growth inhibition, treated disc on agar (BOT CIN). The assay is classed as cell-based. To be noted: Botrytis cinerea, disc dipped in 500 mg/l, 29° C., read-out: Percent Growth Inhibition, BOT CIN.
A further assay has as its system Septoria nodorum. In words: Fungal growth inhibition, treated disc on agar (SEP NOD). The note with it: Parastagonospora nodorum, disc dipped in 500 mg/l, 29° C., read-out: Percent Growth Inhibition, SEP NOD. In kind it is cell-based.
A further assay concerns Fusarium oxysporum. Briefly: Fungal growth inhibition, treated disc on agar (FUS OXY). The assay is classed as cell-based. To be noted: Fusarium oxysporum, disc dipped in 500 mg/l, 29° C., read-out: Percent Growth Inhibition, FUS OXY.
The next assay concerns Erysiphe cichoracearum. In words: Powdery mildew of cucumber, systemic root uptake (CMS). In kind it is in vivo. To be noted: 45 ml of 250 mg/l, 8 days after inoculation. The procedure: (§1) Compositions containing Compounds Nos. 1-81 were prepared by dissolving 0.24 grams of each of the compounds in 8 ml of acetone or other suitable inert solvent. Each of the resultant solutions was treated with 3 drops of TWEEN 20 (ethoxylated ethylene sorbitan monolaurate, a non-ionic surfactant)(I.C.I.), and water was added to form an emulsion. The degree of dilution with water was dictated by the desired concentration of the compound in the composition. The greater the quantity of water added, the lower the concentration of the compound in the composition, reported in milligrams per liter (mg/l) […] Upon reaching these ages, the plants were either treated with 45 ml of 250 mg/l concentration of the compositions of Example 9 or were left untreated. The untreated plants were used as controls. The 45 ml compositions saturated the soil of the treated pots without significant loss through drainage into the saucers below the pots. Twenty-four hours after the treatment with the compositions, both the barley and cucumber plants in all the pots, those treated and those untreated, were inoculated with powdery mildew fungus. This was accomplished by tapping leaves of previously infected barley and cucumber plants over the treated and untreated pots containing the barley and cucumber plants, respectively, to distribute spores of the fungus over the plants tested. […] Intermediate ratings were assigned depending on the degree of disease. […] The results of the powdery mildew disease control of barley are reported under the heading of "BMS". The results for cucumber mildew control are reported under the heading "CMS".

In a further assay the test system is Uromyces phaseoli. In words: Bean rust fungus eradicant test (URO PHA). The assay is classed as in vivo. To be noted: Uromyces phaseoli, 216 h, pinto bean, eradicant spray 2 days after inoculation, 1,000 mg/l; read-out: Percent Reduction of Disease, URO PHA. The procedure: Compositions containing Compounds Nos. 1-81 were prepared by dissolving 0.24 grams of each of the compounds in 8 ml of acetone or other suitable inert solvent. Each of the resultant solutions was treated with 3 drops of TWEEN 20 (ethoxylated ethylene sorbitan monolaurate, a non-ionic surfactant)(I.C.I.), and water was added to form an emulsion. The degree of dilution with water was dictated by the desired concentration of the compound in the composition. The greater the quantity of water added, the lower the concentration of the compound in the composition, reported in milligrams per liter (mg/l) A plurality of pots were each planted with two pinto bean plants, Phaseolus vulgaris, each, susceptible to rust disease. When the plants were 7 days old, at the primary leaf stage of growth, they were all sprayed with a suspension containing 20,000 spores of the bean rust fungus, Uromyces phaseoli, per ml. All the pots were then incubated in a controlled environmental chamber, maintained at 99% humidity and 21° C., for 24 hours to allow infection to occur. The plants were then removed from the incubator and allowed to dry. Two days after inoculation each of the infected plants was then either sprayed with one of the compositions of Example 9, at a dosage of 1,000 mg/l, or left unsprayed. The unsprayed plants acted as controls. All of the sprayed and unsprayed plants were then placed in a greenhouse at 21° C. for nine days to allow the disease to develop. […] Control of disease was determined by comparing treated plants with the untreated controls. The results, expressed as percent reduction of disease, are summarized in Table II under the heading "URO PHA".

The next assay deals with Scierotinia minor. In words: Fungal growth inhibition, treated disc on agar (SCL MIN). The assay is classed as cell-based. The note with it: disc dipped in 500 mg/l, 29° C., read-out: Percent Growth Inhibition, SCL MIN.
In the next assay the test system is Pyricularia oryzae. In words: whole plant or invertebrate. The note with it: Pyricularia oryzae, in Hordeum vulgare, foliar, 216 h, read-out: Percent Reduction of Disease, PYR ORY, barley, foliar, 1,000 mg/l. In kind it is in vivo.
Another assay has as its system Pythium ultimum. In words: Fungal growth inhibition, treated disc on agar (PYT ULT). The assay is classed as cell-based. The note with it: Globisporangium ultimum, disc dipped in 500 mg/l, 29° C., read-out: Percent Growth Inhibition, PYT ULT.
The subject of a further assay is Erysiphe polygoni. In words: Powdery mildew on pinto bean, foliar application (ERY POL). The assay is classed as in vivo. The note with it: Erysiphe polygoni, similar procedure as barley (1,000 mg/l), read-out: Percent Reduction of Disease, ERY POL. The procedure:
Compositions containing Compounds Nos. 1-81 were prepared by dissolving 0.24 grams of each of the compounds in 8 ml of acetone or other suitable inert solvent. Each of the resultant solutions was treated with 3 drops of TWEEN 20 (ethoxylated ethylene sorbitan monolaurate, a non-ionic surfactant)(I.C.I.), and water was added to form an emulsion. The degree of dilution with water was dictated by the desired concentration of the compound in the composition. The greater the quantity of water added, the lower the concentration of the compound in the composition, reported in milligrams per liter (mg/l) Ten plants of "Robust" variety barley were planted in each of a plurality of pots. Each pot was then either sprayed with one of the compositions of Example 9, at a composition concentration of 1,000 mg/l, or left unsprayed. For each pot sprayed, one pot was left unsprayed as a control. After the leaves of the sprayed pots were dried, the sprayed pots and the unsprayed control pots were placed in a greenhouse maintained at 21° C. All the pots were then inoculated with barley powdery mildew fungus, Erysiphe graminis. This inoculation was accomplished by distributing spores of the fungus over the leaves of the plants to be tested from plants which had previously been infected with the mildew disease. […] Again, percent control was computed by comparing the treatment scores with the scores of the untreated controls. The results are summarized in Table II under the heading "ERY GRA". Using a similar procedure as described above for the barley, pinto bean plants were prepared, treated and inoculated with the fungus Erysiphe polygoni. The results of this testing are summarized in Table II under the heading "ERY POL".

Another assay has as its system Colletotrichum gossypii. Briefly: Fungal growth inhibition, treated disc on agar (COL GOS). In kind it is cell-based. To be noted: Colletotrichum gossypii, disc dipped in 500 mg/l, 29° C., read-out: Percent Growth Inhibition, COL GOS.
For the next assay, the system named is Erysiphe graminis. Briefly: Powdery mildew of barley, systemic root uptake (BMS). In kind it is in vivo. The note with it: 45 ml of 250 mg/l, 8 days after inoculation. The procedure:
as §1

Source text for Botrytis cinerea: (§2) Filter paper discs, each 11 mm. in diameter, were dipped in each of the test solutions. The discs were allowed to air dry to drive off the acetone solvent. A number of untreated discs were used as controls.
(§3) The treated and untreated discs were then placed on agar plates and one of the following fungus species: Septoria nodorum (SEP NOD), Botrytis cinerea (BOT CIN), Fusarium oxysporum (FUS OXY), Pythium ultimum (PYT ULT), Rhizoctonia solani (RHI SOL), Colletotrichum gossypii (COL GOS), and Scierotinia minor (SCL MIN), was added to the center of each disc in the form of a culture plug with the fungus mat in contact with the paper of the test disc. Cercosporidium personatum (CER PER), was added to discs as a spore suspension (20,000 spores/ml) to the disc (two drops of spore suspension per disc), rather than a mycelial culture plug. The plates were then incubated at 29° C. in an oven.
(§4) With the exception of the discs containing Cercosporidium personatum, the discs were evaluated by first measuring the radius from the center of the fungus colony on the treated discs and on the untreated discs. Percent growth inhibition of each of the compounds tested was determined as a function of the difference between the radius of the fungus colony on the treated disc versus the radius of the fungus colony on the untreated disc.
Source text for Colletotrichum gossypii: as §2, §3, §4

Regarding `CC(C)CC(C#N)(CCc1ccccc1)c1cccnc1` (stereo not drawn) [Compound 7], the inhibition at 500 µg/mL with Botrytis cinerea turned out to be 100%; with Septoria nodorum, 5%; in the assay on Fusarium oxysporum, 100%; with Scierotinia minor, 10%; with Pythium ultimum, 35%; with Colletotrichum gossypii it was 89%. Also, in the assay on Erysiphe cichoracearum, the “Percent Reduction of Disease, CMS” value was 20%. Further, the pest or weed control at 1000 µg/mL was 90% with Uromyces phaseoli, 83% with Pyricularia oryzae and 100% in the assay on Erysiphe polygoni. In addition, the “Percent Reduction of Disease, BMS” value in the assay on Erysiphe graminis is listed as 35%.
With `CC(C)=CCC(C#N)(CCc1ccccc1)c1cccnc1` (stereo not drawn) [Compound 8], the inhibition at 500 µg/mL was 40% in the assay on Botrytis cinerea; 25% in the assay with Septoria nodorum; 0% in the assay with Fusarium oxysporum; 100% with Scierotinia minor; 35% with Pythium ultimum; 95% in the assay on Colletotrichum gossypii. In addition, in the assay with Erysiphe cichoracearum, the “Percent Reduction of Disease, CMS” value was 0%. In addition, the pest or weed control at 1000 µg/mL in the assay with Uromyces phaseoli worked out at 80%; in the assay on Pyricularia oryzae, 0%; in the assay with Erysiphe polygoni it was 99%. Moreover, the “Percent Reduction of Disease, BMS” value in the assay on Erysiphe graminis was 45%.
Turning to `C=CCC(C#N)(CCc1ccc(F)cc1)c1cccnc1` (stereo not drawn) [Compound 9, 4-fluoro-α-(2-propenyl)-α-(3-pyridinyl)benzenebutanenitrile], the inhibition at 500 µg/mL in the assay with Botrytis cinerea was 100%; with Septoria nodorum, 30%; in the assay on Fusarium oxysporum, 100%; with Scierotinia minor it was 98%; with Pythium ultimum, 35%; with Colletotrichum gossypii, 100%. Further, in the assay with Erysiphe cichoracearum, the “Percent Reduction of Disease, CMS” value is reported as 74%. Besides, the pest or weed control at 1000 µg/mL with Uromyces phaseoli is 100%; in the assay on Pyricularia oryzae, 70%; in the assay with Erysiphe polygoni it was 99%. For the same compound, the “Percent Reduction of Disease, BMS” value in the assay with Erysiphe graminis is reported as 40%.
Take `CCCC(C#N)(CCc1ccc(F)cc1)c1cccnc1` (stereo not drawn) [Compound 10]: the inhibition at 500 µg/mL was determined as 98% in the assay with Botrytis cinerea; 80% in the assay on Septoria nodorum; 97% in the assay on Fusarium oxysporum; 100% in the assay with Scierotinia minor; 40% in the assay with Pythium ultimum; 97% in the assay with Colletotrichum gossypii. In addition, in the assay with Erysiphe cichoracearum, the “Percent Reduction of Disease, CMS” value is on record as 88%. For the same compound, the pest or weed control at 1000 µg/mL in the assay on Uromyces phaseoli was determined as 100%; in the assay with Pyricularia oryzae it was 70%; with Erysiphe polygoni, 99%. The “Percent Reduction of Disease, BMS” value in the assay on Erysiphe graminis stood at 84%.
`CCCCC(C#N)(CCc1ccc(F)cc1)c1cccnc1` (stereo not drawn) [Compound 11]: the inhibition at 500 µg/mL turned out to be 100% with Botrytis cinerea; 60% in the assay on Septoria nodorum; 10% in the assay with Fusarium oxysporum; 98% in the assay on Scierotinia minor; 40% with Pythium ultimum; 100% in the assay on Colletotrichum gossypii. Moreover, in the assay with Erysiphe cichoracearum, the “Percent Reduction of Disease, CMS” value is 39%. Also, the figures for the pest or weed control at 1000 µg/mL in the assay with Uromyces phaseoli, in the assay on Pyricularia oryzae and in the assay with Erysiphe polygoni were 100%, 85% and 100%, respectively. Besides, the “Percent Reduction of Disease, BMS” value in the assay with Erysiphe graminis turned out to be 74%.
Turning to `CCCC(C#N)(CCCc1ccc(Cl)cc1)c1cccnc1` (stereo not drawn) [Compound 12], the inhibition at 500 µg/mL in the assay on Botrytis cinerea is 98%; with Septoria nodorum it was 70%; in the assay on Fusarium oxysporum, 80%; in the assay on Scierotinia minor it was 92%; in the assay on Pythium ultimum, 90%; with Colletotrichum gossypii it was 93%. Besides, the “Percent Reduction of Disease, CMS” value in the assay on Erysiphe cichoracearum came to 40%. In addition, the figures for the pest or weed control at 1000 µg/mL in the assay with Uromyces phaseoli, in the assay on Pyricularia oryzae and in the assay on Erysiphe polygoni were 100%, 85% and 95%, respectively. The “Percent Reduction of Disease, BMS” value with Erysiphe graminis was found to be 40%.
With `CCCCC(C#N)(CCCc1ccc(Cl)cc1)c1cccnc1` (stereo not drawn) [Compound 13], the inhibition at 500 µg/mL in the assay with Botrytis cinerea was found to be 98%; with Septoria nodorum, 75%; in the assay with Fusarium oxysporum, 60%; with Scierotinia minor it was 94%; with Pythium ultimum it was 10%; with Colletotrichum gossypii, 93%. In the assay with Erysiphe cichoracearum, the “Percent Reduction of Disease, CMS” value is 0%. Besides, the pest or weed control at 1000 µg/mL with Uromyces phaseoli was 100%; with Pyricularia oryzae it was 85%; with Erysiphe polygoni, 100%. Also, the “Percent Reduction of Disease, BMS” value with Erysiphe graminis is on record as 40%.
For the compound `CCCC(C#N)(Cc1ccc(C(C)(C)C)cc1)c1cccnc1` (stereo not drawn) [Compound 14], the inhibition at 500 µg/mL in the assay with Botrytis cinerea is 15%; in the assay on Septoria nodorum, 0%; in the assay with Fusarium oxysporum it was 25%; in the assay on Scierotinia minor, 5%; in the assay with Pythium ultimum, 10%; in the assay on Colletotrichum gossypii, 5%. Further, the “Percent Reduction of Disease, CMS” value in the assay with Erysiphe cichoracearum came out at 84%. Moreover, the pest or weed control at 1000 µg/mL amounted to 33% with Uromyces phaseoli, 100% in the assay on Pyricularia oryzae and 100% in the assay with Erysiphe polygoni. In the assay on Erysiphe graminis, the “Percent Reduction of Disease, BMS” value is given as 0%.
On to `CCCC(C#N)(CCCc1ccccc1Cl)c1cccnc1` (stereo not drawn) [Compound 15, 2-chloro-α-propyl-(3-pyridinyl)benzene pentanenitrile], for which the inhibition at 500 µg/mL is 30% with Botrytis cinerea; 93% in the assay on Septoria nodorum; 95% in the assay on Fusarium oxysporum; 100% in the assay on Scierotinia minor; 83% with Pythium ultimum; 93% in the assay on Colletotrichum gossypii. The “Percent Reduction of Disease, CMS” value in the assay with Erysiphe cichoracearum turned out to be 96%. Moreover, the pest or weed control at 1000 µg/mL amounted to 83% in the assay on Uromyces phaseoli, 85% with Pyricularia oryzae and 100% in the assay on Erysiphe polygoni. The “Percent Reduction of Disease, BMS” value in the assay on Erysiphe graminis is listed as 0%.

As usually defined, the inhibition is the drop in the measured response relative to a control, in per cent.
